Converted amounts (≈) assume the structure as drawn.

The subject of one test is P388. The experiment in a line: In vivo cytotoxicity against mouse P388 cells relative to control. The class given is functional.
Details: not given
`COc1cc2c[n+](C)c3c4cc(OC)c(OC)cc4ccc3c2cc1OC`: the T/C was 200%.
Molecule `COc1cc2c(ccc3c4cc(OC)c(OC)cc4c[n+](C)c23)cc1O.[Cl-]` [FAGARONINE] gave a T/C of 270%.
With `Cc1cc2c(C(C)C)c(O)c(O)c(C=O)c2c(O)c1-c1c(C)cc2c(C(C)C)c(O)c(O)c(C=O)c2c1O` [GOSSYPOL], the T/C was 150%.
With `CC(C)[C@](O)(C(=O)OCC1=CC[N+]2([O-])CC[C@@H](O)[C@@H]12)[C@H](C)O` (stereo partly specified) [INDICINE N-OXIDE], the T/C was determined as 262%.

In a further test the test system is KB. The test is described as follows: Cytotoxicity against human KB cells. Format: functional. To be noted: read-out: ED50 (the source's name).
In the case of `COc1ccc2[nH]c3c(C)c4ccncc4c(C)c3c2c1`, the EC50 came to 8.7 µg/mL (≈ 31.5 µM).
Consider `COc1ccc2cc1Oc1ccc(cc1)C[C@H]1c3cc(c(OC)cc3CCN1C)Oc1c(OC)c(OC)cc3c1[C@@H](C2)N(C)CC3`, for which the EC50 worked out at 10 µg/mL (≈ 16.1 µM).
The same measure, in the same setting: for `COc1ccc2cc1Oc1ccc(cc1)C[C@H]1c3cc(c(OC)cc3CCN1C)Oc1c(OC)c(OC)cc3c1C(C2)N(C)CC3` (mixture of isomers) the value was 22 µg/mL; for `COc1ccc(C[C@H]2C(=O)N[C@@H](C)C(=O)N(C)[C@@H]3C(=O)N(C)[C@@H](Cc4ccc(O)c(c4)Oc4ccc(cc4)[C@@H]3O)C(=O)N[C@@H](C)C(=O)N[C@@H](C)C(=O)N2C)cc1` [BOUVARDIN], 8.8 µg/mL (≈ 11.4 µM).
For the molecule `COC(=O)[C@@]12OC[C@]34[C@H]([C@@H](O)[C@@H]1O)[C@@]1(C)CC(=O)C(O)=C(C)[C@@H]1C[C@H]3OC(=O)[C@H](OC(=O)/C=C(\C)C(C)C)[C@@H]24` [BRUCEANTIN], the EC50 amounted to 17 µg/mL (≈ 31 µM).
The same measure, in the same setting: the result for `CC[C@@]1(O)C(=O)OCc2c1cc1n(c2=O)Cc2cc3ccccc3nc2-1` [CAMPTOTHECIN] reads 2.3 µg/mL (≈ 6.6 µM).
On the same count and under the same terms, for `COc1cc2c(c(OC)c1OC)-c1ccc(OC)c(=O)cc1[C@@H](NC(C)=O)CC2` [COLCHICINE] the value was 0.23 µg/mL (≈ 0.576 µM).
With `CN[C@H]1CCc2cc(OC)c(OC)c(OC)c2-c2ccc(OC)c(=O)cc21` [DEMECOLCINE], the EC50 is less than 0.25 µg/mL.
In the case of `Cc1c2ccncc2c(C)c2c1[nH]c1ccccc12` [ELLIPTECINE], the EC50 stood at 0.36 µg/mL (≈ 1.46 µM).
For the molecule `CC[C@H]1CN2CCc3cc(OC)c(OC)cc3[C@@H]2C[C@@H]1C[C@H]1NCCc2cc(OC)c(OC)cc21` [EMETINE], the EC50 is less than 1 µg/mL.
Still for that read-out and setting: the result for `CC(=O)O[C@H]1C(=O)O[C@@H]2C[C@H]3C(C)=CC(=O)[C@@H](O)[C@]3(C)[C@H]3[C@]4(O)OC[C@]32[C@@H]1[C@@H](C)[C@H]4O` [HOLACANTHONE] reads 6.8 µg/mL (≈ 15.6 µM); that for `COc1cc2cc(c1Cl)N(C)C(=O)C[C@H](OC(=O)[C@H](C)N(C)C(C)=O)[C@]1(C)O[C@H]1[C@H](C)[C@@H]1C[C@@](O)(NC(=O)O1)[C@H](OC)/C=C/C=C(\C)C2` [MAYTANSINE], 0.51 µg/mL (≈ 0.737 µM); that for `C[C@H]1C(=O)O[C@@H]2CCN3CC=C(COC(=O)[C@](C)(O)[C@]1(C)O)[C@H]23` [MONOCROTALINE], greater than 100 µg/mL.
Turning to `COc1cc2c[n+](C)c3c4cc5c(cc4ccc3c2cc1OC)OCO5.[Cl-]` [NITIDINE CHLORIDE], the EC50 was 4.3 µg/mL.
Still for that read-out and setting: the result for `COC(=O)C[C@](O)(CCCC(C)(C)O)C(=O)O[C@@H]1C(OC)=C[C@]23CCCN2CCc2cc4c(cc2[C@H]13)OCO4` [OMACETAXINE MEPESUCCINATE] reads 3.9 µg/mL (≈ 7.15 µM); that for `CC(=O)O[C@H]1C(=O)[C@@]2(C)[C@H]([C@H](OC(=O)c3ccccc3)[C@]3(O)C[C@H](OC(=O)[C@H](O)[C@@H](NC(=O)c4ccccc4)c4ccccc4)C(C)=C1C3(C)C)[C@]1(OC(C)=O)CO[C@@H]1C[C@@H]2O` [PACLITAXEL], 8.9 µg/mL (≈ 10.4 µM); that for `COc1cc([C@@H]2c3cc4c(cc3[C@H](O)[C@H]3COC(=O)[C@H]23)OCO4)cc(OC)c1OC` [PODOFILOX], less than 1 µg/mL.
With `COc1cc(C[C@H]2c3cc(OC)c(OC)cc3CCN2C)c(Oc2cc3c(cc2OC)-c2c(OC)c(OC)cc4c2[C@H](C3)N(C)CC4)cc1OC` [THALICARPINE], the EC50 was found to be 3.7 µg/mL (≈ 5.31 µM).
As for `CC(C)[C@]12O[C@H]1[C@@H]1O[C@]13[C@]1(O[C@H]1C[C@H]1C4=C(C(=O)OC4)[C@@H](O)C[C@@]13C)[C@@H]2O` [TRIPDIOLIDE], the EC50 turned out to be 2.8 µg/mL (≈ 7.44 µM).
Same read-out and setting: for `CC(C)[C@]12O[C@H]1[C@@H]1O[C@]13[C@]1(O[C@H]1C[C@H]1C4=C(CC[C@@]13C)C(=O)OC4)[C@@H]2O` [TRIPTOLIDE] the value was 2.6 µg/mL (≈ 7.21 µM).
Same read-out and setting: for `COc1cc2c3c(c4ccc(OC)c(OC)c4c2cc1OC)CN1CCC[C@@H]1C3` [TYLOCREBRINE] the value was 0.013 µg/mL (≈ 0.033 µM); for `CC[C@]1(O)C[C@H]2CN(CCc3c([nH]c4ccccc34)[C@@](C(=O)OC)(c3cc4c(cc3OC)N(C=O)[C@H]3[C@@](O)(C(=O)OC)[C@H](OC(C)=O)[C@]5(CC)C=CCN6CC[C@]43[C@@H]65)C2)C1` [VINCRISTINE], 1.3 µg/mL (≈ 1.58 µM).

The record behind these values is ChEMBL document CHEMBL1148992, “KB cell culture I. Role in discovery of antitumor agents from higher plants” (1982).
